Assay results from PMC3368247 (Frontiers in Pharmacology, 2012).
Read-outs that look alike come from different tables or passages of the source.

Columns and labels:
Cx50 GJ channels = Cx50 GJ channels (Mus musculus, UniProt P28236); format: cell-based; conditions: for effect on Cx50 junctional current: 10 μM; for IC50 Cx50 (μM): Table A1, alcohols, amines, nitriles and ureas; for Hill slope / Hill coefficient of Cx50 inhibition: fit to the Hill equation
Cx32 GJ channels = Cx32 GJ channels (Rattus norvegicus, UniProt P08033); assay: Cx32 junctional current, dual whole-cell voltage-clamp in N2A cells; format: cell-based; conditions: 10 μM
Cx46 GJ channels = Cx46 GJ channels (Rattus norvegicus, UniProt P29414); assay: Cx46 junctional current, dual whole-cell voltage-clamp in N2A cells; format: cell-based; conditions: 10 μM
[1] = molecular target: channels built out of Cx36 (Homo sapiens, UniProt Q9UKL4); assay: Cx36 junctional current, dual whole-cell patch-clamp; format: cell-based; conditions: 10 μM
hKCa3.1 = hKCa3.1 (Homo sapiens, UniProt O15554); assay: KCa3.1 current, whole-cell patch-clamp; format: cell-based
Kv3.1 = Kv3.1 (Mus musculus, UniProt P15388); assay: Kv3.1 current, whole-cell patch-clamp; format: cell-based; conditions: read-out: Percentage of current inhibition, Kv3.1
Cx26 GJ channels = Cx26 GJ channels (Rattus norvegicus, UniProt P21994); assay: Cx26 junctional current, dual whole-cell voltage-clamp in N2A cells; format: cell-based; conditions: 10 μM
Kv11.1 (hERG) = Kv11.1 (hERG) (Homo sapiens, UniProt Q12809); assay: Kv11.1; format: cell-based; conditions: HEK-293 cells stably expressing Kv11.1 (hERG)
Kv1.1 = Kv1.1 (Mus musculus, UniProt P16388); assay: Kv1.1 current, whole-cell patch-clamp; format: cell-based; conditions: read-out: Percentage of current inhibition, Kv1.1
Kv4.2 = Kv4.2 (Rattus norvegicus, UniProt Q63881); assay: Kv4.2 current, whole-cell patch-clamp; format: cell-based; conditions: read-out: Percentage of current inhibition, Kv4.2
potassium channels = assay: Summary of block of the tested potassium channels; format: cell-based; conditions: 10 μM; summary in discussion
Nav1.4 = Nav1.4 (Homo sapiens, UniProt P35499); assay: Nav1.4 current, whole-cell patch-clamp; format: cell-based; conditions: 10 μM
Nav1.2 = Nav1.2 (Mus musculus, UniProt B1AWN6); assay: Nav1.2 current in N1E-115 cells, whole-cell patch-clamp; format: cell-based; conditions: N1E-115, read-out: Percentage of current inhibition, Nav1.2
KCa2.3 = KCa2.3 current, whole-cell patch-clamp; format: cell-based, human; conditions: 10 μM
[2] = molecular target: Cx45 gap junction channels (Homo sapiens, UniProt P36383); assay: Cx45 junctional current, dual whole-cell voltage-clamp; format: cell-based; conditions: 10 μM
KCa1.1 (BK) = KCa1.1 (BK) (Homo sapiens, UniProt Q12791); assay: KCa1.1; format: cell-based; conditions: read-out: Percentage of current inhibition, KCa1.1 (BK)
Kv2.1 = Kv2.1 (Homo sapiens, UniProt Q14721); assay: Kv2.1 current, whole-cell patch-clamp; format: cell-based; conditions: read-out: Percentage of current inhibition, Kv2.1
sodium channels = assay: Summary of block of the tested sodium channels; format: cell-based; conditions: 10 μM; summary in discussion
[3] = tested on: primary lens epithelial cells; assay: Junctional currents between primary lens epithelial cells; format: cell-based, mouse; conditions: 10 μM; for reduction of junctional currents in lens epithelial cells, % of the initial conductance: mouse lenses postnatal day 6, means ± SEM
Kv7.2/7.3 = Kv7.2/7.3 (Homo sapiens, UniProt O43525+O43526); assay: Kv7.2/7.3 current, whole-cell patch-clamp; format: cell-based; conditions: 10 μM
Kv1.3 = Kv1.3 (Mus musculus, UniProt P16390); assay: Kv1.3 current, whole-cell patch-clamp; format: cell-based; conditions: read-out: Percentage of current inhibition, Kv1.3
P2x7 receptors = conditions: read-out: IC50, P2x7 receptors; ref Suadicani et al., 2006; cited from earlier work
[4] = molecular target: 11β-hydroxysteroid dehydrogenase; conditions: read-out: IC50, 11β-hydroxysteroid dehydrogenase; ref Monder et al., 1989; cited from earlier work
[5] = tested on: voltage-gated Ca^2+ currents; conditions: read-out: IC50, voltage-gated Ca2+ currents; ref Vessey et al., 2004; cited from earlier work
pannexin channels = conditions: read-out: IC50, pannexin channels; ref Locovei et al., 2007; cited from earlier work
Cx38 hemichannel = conditions: read-out: IC50, Cx38 hemichannel currents; Xenopus oocytes; literature value; cited from earlier work
Cx26 hemichannel = conditions: read-out: IC50, Cx26 hemichannel currents; Xenopus oocytes; literature value; cited from earlier work
[6] = IC50 KCa3.1, Table 1, mean ± SD

Chain of hKCa3.1 (O15554 whole entry): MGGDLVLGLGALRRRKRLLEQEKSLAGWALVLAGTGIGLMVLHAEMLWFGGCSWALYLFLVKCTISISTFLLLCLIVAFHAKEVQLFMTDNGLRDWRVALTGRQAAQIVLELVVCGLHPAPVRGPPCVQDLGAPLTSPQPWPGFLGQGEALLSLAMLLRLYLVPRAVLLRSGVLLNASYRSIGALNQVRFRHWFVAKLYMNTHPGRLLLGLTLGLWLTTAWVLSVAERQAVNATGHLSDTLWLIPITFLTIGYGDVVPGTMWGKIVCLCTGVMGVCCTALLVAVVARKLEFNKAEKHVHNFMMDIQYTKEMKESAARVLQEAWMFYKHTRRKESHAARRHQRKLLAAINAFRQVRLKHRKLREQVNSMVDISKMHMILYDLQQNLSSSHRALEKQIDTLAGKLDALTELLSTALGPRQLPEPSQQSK
Chain of Cx50 GJ channels (P28236 whole entry): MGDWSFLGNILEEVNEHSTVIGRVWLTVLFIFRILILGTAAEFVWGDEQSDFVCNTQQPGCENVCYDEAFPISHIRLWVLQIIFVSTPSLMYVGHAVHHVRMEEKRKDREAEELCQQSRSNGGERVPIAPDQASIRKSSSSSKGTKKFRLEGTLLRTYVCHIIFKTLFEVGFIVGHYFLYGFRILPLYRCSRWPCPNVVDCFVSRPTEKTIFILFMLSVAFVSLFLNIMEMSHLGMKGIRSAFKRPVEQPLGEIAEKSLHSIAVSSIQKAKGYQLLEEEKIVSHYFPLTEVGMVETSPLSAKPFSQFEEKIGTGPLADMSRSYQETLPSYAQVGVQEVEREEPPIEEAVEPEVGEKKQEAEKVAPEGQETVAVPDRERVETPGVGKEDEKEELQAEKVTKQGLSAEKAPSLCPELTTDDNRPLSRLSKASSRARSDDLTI
Chain of Cx32 GJ channels (P08033 whole entry): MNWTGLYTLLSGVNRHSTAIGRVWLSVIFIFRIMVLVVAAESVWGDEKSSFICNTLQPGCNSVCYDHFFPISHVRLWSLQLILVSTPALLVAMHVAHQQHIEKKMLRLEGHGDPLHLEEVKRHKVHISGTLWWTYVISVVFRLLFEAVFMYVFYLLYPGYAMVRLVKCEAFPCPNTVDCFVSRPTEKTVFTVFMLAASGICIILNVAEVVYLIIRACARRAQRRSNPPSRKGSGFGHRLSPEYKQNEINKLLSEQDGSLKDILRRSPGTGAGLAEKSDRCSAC
Chain of KCa1.1 (BK) (Q12791 whole entry): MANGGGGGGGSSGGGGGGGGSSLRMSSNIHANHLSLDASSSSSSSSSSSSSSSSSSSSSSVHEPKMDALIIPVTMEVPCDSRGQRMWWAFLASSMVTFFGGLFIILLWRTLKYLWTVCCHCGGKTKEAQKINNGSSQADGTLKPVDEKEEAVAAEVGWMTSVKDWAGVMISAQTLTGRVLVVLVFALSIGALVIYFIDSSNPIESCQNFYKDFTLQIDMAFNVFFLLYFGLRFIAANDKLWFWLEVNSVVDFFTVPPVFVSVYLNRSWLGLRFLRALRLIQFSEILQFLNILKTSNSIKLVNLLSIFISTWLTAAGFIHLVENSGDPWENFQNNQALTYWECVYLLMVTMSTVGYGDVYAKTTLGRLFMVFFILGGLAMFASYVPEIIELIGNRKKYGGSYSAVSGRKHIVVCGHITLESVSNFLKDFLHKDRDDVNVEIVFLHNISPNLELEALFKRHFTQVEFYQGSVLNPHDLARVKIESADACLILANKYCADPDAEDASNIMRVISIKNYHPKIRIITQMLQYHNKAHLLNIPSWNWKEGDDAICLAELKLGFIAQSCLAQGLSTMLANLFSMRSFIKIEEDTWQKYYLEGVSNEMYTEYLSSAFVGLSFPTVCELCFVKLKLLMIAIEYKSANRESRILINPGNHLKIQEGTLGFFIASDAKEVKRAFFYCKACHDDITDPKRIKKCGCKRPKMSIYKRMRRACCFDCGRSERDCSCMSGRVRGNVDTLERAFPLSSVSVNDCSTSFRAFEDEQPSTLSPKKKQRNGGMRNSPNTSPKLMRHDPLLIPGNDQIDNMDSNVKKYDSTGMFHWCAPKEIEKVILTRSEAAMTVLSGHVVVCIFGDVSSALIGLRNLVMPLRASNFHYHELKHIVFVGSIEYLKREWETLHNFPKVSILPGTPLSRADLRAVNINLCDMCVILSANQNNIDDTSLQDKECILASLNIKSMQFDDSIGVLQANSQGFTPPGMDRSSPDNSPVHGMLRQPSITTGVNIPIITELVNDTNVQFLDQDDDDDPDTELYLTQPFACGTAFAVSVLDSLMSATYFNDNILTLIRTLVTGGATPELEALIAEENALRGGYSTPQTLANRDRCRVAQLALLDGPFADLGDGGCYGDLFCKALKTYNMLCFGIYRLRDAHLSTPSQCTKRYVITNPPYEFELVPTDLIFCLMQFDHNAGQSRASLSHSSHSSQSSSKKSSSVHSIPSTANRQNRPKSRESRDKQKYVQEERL
Chain of Kv3.1 (P15388 whole entry): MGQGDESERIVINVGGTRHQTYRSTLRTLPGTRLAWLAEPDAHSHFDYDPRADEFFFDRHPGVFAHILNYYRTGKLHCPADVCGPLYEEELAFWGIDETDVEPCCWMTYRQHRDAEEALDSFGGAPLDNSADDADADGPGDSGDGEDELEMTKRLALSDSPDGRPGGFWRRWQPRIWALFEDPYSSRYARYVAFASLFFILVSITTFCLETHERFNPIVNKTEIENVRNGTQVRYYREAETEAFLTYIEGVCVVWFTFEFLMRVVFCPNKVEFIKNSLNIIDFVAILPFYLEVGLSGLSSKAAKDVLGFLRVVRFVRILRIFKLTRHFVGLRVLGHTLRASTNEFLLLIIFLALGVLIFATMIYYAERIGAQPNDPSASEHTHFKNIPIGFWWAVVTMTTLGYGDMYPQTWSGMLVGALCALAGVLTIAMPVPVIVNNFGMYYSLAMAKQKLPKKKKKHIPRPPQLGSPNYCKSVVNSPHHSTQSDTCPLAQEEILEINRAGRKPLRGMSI
Chain of Kv11.1 (hERG) (Q12809 whole entry): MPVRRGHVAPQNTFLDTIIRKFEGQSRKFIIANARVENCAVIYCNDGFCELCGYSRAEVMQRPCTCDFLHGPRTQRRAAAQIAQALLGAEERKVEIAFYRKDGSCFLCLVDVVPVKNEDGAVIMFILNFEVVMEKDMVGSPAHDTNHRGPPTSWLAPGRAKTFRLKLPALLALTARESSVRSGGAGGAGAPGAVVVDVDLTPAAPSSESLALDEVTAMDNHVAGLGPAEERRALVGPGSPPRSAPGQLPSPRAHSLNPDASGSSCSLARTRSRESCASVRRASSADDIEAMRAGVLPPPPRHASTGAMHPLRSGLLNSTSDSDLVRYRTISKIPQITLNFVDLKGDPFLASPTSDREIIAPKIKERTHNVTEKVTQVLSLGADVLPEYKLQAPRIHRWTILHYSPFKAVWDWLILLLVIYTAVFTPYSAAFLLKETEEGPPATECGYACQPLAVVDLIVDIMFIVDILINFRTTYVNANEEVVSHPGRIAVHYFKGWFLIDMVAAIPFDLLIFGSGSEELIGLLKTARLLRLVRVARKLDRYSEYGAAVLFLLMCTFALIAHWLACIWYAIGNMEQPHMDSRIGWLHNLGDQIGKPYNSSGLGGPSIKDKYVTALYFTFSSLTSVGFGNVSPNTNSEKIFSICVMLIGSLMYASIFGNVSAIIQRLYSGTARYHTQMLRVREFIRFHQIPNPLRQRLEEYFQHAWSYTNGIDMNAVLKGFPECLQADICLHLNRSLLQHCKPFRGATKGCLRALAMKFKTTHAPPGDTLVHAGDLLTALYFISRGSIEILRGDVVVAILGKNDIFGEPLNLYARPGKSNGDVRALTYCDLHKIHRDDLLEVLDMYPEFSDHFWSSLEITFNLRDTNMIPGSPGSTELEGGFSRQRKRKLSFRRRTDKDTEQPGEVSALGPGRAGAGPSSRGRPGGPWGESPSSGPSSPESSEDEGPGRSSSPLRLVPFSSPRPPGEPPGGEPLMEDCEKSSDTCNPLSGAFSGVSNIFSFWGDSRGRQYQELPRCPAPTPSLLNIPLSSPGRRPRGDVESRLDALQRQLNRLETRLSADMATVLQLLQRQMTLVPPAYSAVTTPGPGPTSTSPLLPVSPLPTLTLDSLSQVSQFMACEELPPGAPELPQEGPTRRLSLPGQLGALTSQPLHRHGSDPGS
Chain of Kv2.1 (Q14721 whole entry): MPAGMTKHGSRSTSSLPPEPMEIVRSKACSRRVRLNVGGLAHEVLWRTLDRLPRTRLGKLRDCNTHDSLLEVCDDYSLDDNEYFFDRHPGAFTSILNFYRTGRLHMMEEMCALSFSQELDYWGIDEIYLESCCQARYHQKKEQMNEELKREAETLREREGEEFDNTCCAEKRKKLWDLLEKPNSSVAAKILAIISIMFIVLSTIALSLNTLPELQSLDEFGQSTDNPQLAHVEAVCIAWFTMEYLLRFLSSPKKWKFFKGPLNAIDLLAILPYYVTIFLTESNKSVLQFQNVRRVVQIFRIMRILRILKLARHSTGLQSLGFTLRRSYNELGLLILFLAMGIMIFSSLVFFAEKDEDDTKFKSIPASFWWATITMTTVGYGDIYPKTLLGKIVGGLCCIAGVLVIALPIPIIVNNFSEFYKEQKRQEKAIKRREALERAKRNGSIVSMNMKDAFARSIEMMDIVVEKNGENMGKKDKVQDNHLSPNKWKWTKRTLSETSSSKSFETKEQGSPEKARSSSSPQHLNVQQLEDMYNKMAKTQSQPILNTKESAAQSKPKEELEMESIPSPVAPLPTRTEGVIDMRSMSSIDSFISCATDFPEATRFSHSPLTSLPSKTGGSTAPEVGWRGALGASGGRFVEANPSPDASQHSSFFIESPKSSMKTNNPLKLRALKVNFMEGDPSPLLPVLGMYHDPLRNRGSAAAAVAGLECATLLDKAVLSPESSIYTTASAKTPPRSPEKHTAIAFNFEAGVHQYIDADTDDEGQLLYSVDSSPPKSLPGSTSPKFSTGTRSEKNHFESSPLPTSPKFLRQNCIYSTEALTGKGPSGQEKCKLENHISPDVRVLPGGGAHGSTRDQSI

## COc1ccc(CCN2CCC(Nc3nc4ccccc4n3Cc3ccc(F)cc3)CC2)cc1 [Astemizole, reference compound]
Cx50 GJ channels
  reversibility of inhibition of Cx50 junctional currents upon washout: completely reversible
  effect on Cx50 junctional current: significant inhibition

## Clc1ccccc1C(c1ccccc1)(c1ccccc1)n1ccnc1 [Clotrimazole]
Cx32 GJ channels
  inhibition of Cx32 GJ channel current / reduction of junction conductance: no effect
Cx46 GJ channels
  inhibition of Cx46 GJ channel current / reduction of junction conductance: no effect
[1]
  effect on channels built out of Cx36: no effect

## OC(c1ccccc1)(c1ccccc1)c1ccc(Cl)cc1 [T1, (4-Chlorophenyl)diphenylmethanol]
hKCa3.1; IC50 KCa3.1 (μM), Table A1
  IC50: 0.53 µM
Cx50 GJ channels
  IC50: 2.8 µM

## OC(c1ccccc1)(c1ccccc1)c1cccc(Cl)c1 [T2, (3-Chlorophenyl)diphenylmethanol]
hKCa3.1; IC50 KCa3.1 (μM), Table A1
  IC50: 0.55 µM
Cx50 GJ channels
  IC50: 3.6 µM

## OC(c1ccccc1)(c1ccccc1)c1ccncc1 [T50, diphenyl-4-pyridylmethanol]
hKCa3.1
  IC50: > 50 µM
Cx50 GJ channels
  IC50: 10 µM

## O=C(O)CC(c1ccccc1)(c1ccccc1)c1ccccc1 [T51, 3,3,3-triphenylpropionic acid]
hKCa3.1; IC50 KCa3.1 (μM), Table A1
  IC50: 25 µM
Cx50 GJ channels
  IC50 Cx50 (μM): No effect

## FC(F)(F)Oc1cccc(NC(c2ccccc2)(c2ccccc2)c2ccccc2Cl)c1 [T102, N-[(2-Chlorophenyl)diphenylmethyl]-3-(trifluoromethoxy)aniline]
Cx50 GJ channels
  effect on Cx50 junctional current: no effect

## FC(F)(F)Oc1ccccc1NC(c1ccccc1)(c1ccccc1)c1ccccc1Cl [T104, N-[(2-Chlorophenyl)diphenylmethyl]-2-(trifluoromethoxy)aniline]
Cx50 GJ channels
  effect on Cx50 junctional current: no effect

## COc1ccc(NC(c2ccccc2)(c2ccccc2)c2ccccc2Cl)cc1 [T106, N-[(2-Chlorophenyl)diphenylmethyl]-4-methoxyaniline]
Cx50 GJ channels
  IC50: 10 µM

## Clc1ccccc1C(Oc1ccccc1)(c1ccccc1)c1ccccc1 [T107, 1-Chloro-2-(phenoxydiphenylmethyl)benzene]
Cx50 GJ channels
  effect on Cx50 junctional current: no effect

## Clc1ccccc1C(Nc1ccccc1)(c1ccccc1)c1ccccc1 [T109, N-[(2-Chlorophenyl)diphenylmethyl]aniline]
Cx50 GJ channels
  effect on Cx50 junctional current: no effect

## COc1ccccc1C(O)(c1ccccc1)c1ccccc1 [T117, (2-Methoxyphenyl)diphenylmethanol]
Cx50 GJ channels
  IC50 Cx50 (μM): No effect

## COc1ccccc1C(Nc1nccs1)(c1ccccc1)c1ccccc1 [T122, N-[(2-Methoxyphenyl)diphenylmethyl]-1,3-thiazol-2-amine]
Kv3.1
  inhibition at 10 µM: 32 ± 12%
Cx26 GJ channels
  inhibition of Cx26 GJ channel current / reduction of junction conductance: no significant effect
Kv11.1 (hERG)
  inhibition at 10 µM: 42 ± 3%
Kv1.1
  inhibition at 10 µM: 65 ± 10%
Kv4.2
  inhibition at 10 µM: 16 ± 4%
Potassium channels
  inhibition of most of the tested potassium channels: 18–43%
Nav1.4
  Percentage of current inhibition, Nav1.4: No effect (n = 3)
Nav1.2
  inhibition at 10 µM: 11 ± 1%
KCa2.3
  Percentage of current inhibition, KCa2.3: No effect (n = 3)
[2]
  effect on Cx45 gap junction channels: no significant effect
KCa1.1 (BK)
  inhibition at 10 µM: 43 ± 4%
Kv2.1
  inhibition at 10 µM: 28 ± 4%
Sodium channels
  inhibition of sodium channels: < 11%
Cx32 GJ channels
  inhibition of Cx32 GJ channel current / reduction of junction conductance: no significant effect
hKCa3.1; [6]
  IC50: 10.2 µM
hKCa3.1; IC50 KCa3.1, running text
  IC50: 10 µM
Cx50 GJ channels
  IC50: 1.2 µM
  selectivity over other connexins as well as major neuronal and cardiac voltage-gated K+ and Na+ channels: at least 10 fold
  Hill slope / Hill coefficient of Cx50 inhibition: 1.6
[3]
  reversibility of reduction of junctional currents on washout: reversible
  reduction of junctional currents in lens epithelial cells, % of the initial conductance: 67 ± 9%
Kv7.2/7.3
  Percentage of current inhibition, Kv7.2/7.3: No effect (n = 3)
Kv1.3
  inhibition at 10 µM: 52 ± 2%

## Ic1ccccc1C(Nc1nccs1)(c1ccccc1)c1ccccc1 [T136, N-[(2-Iodophenyl)diphenylmethyl]-1,3-thiazol-2-amine]
Kv3.1
  inhibition at 10 µM: 37 ± 16%
Cx26 GJ channels
  inhibition of Cx26 GJ channel current / reduction of junction conductance: no significant effect
Kv11.1 (hERG)
  inhibition at 10 µM: 27 ± 4%
Kv1.1
  inhibition at 10 µM: 28 ± 9%
Kv4.2
  inhibition at 10 µM: 15 ± 3%
Potassium channels
  inhibition of most of the tested potassium channels: 18–43%
Nav1.4
  Percentage of current inhibition, Nav1.4: No effect (n = 3)
Nav1.2
  inhibition at 10 µM: 9 ± 0.5%
KCa2.3
  Percentage of current inhibition, KCa2.3: No effect (n = 3)
[2]
  effect on Cx45 gap junction channels: no significant effect
KCa1.1 (BK)
  inhibition at 10 µM: 26 ± 2%
Kv2.1
  inhibition at 10 µM: 28 ± 4%
Sodium channels
  inhibition of sodium channels: < 11%
Cx32 GJ channels
  inhibition of Cx32 GJ channel current / reduction of junction conductance: no significant effect
hKCa3.1; [6]
  IC50: 1.3 µM
Cx50 GJ channels
  IC50: 2.4 µM
  selectivity over other connexins as well as major neuronal and cardiac voltage-gated K+ and Na+ channels: at least 10 fold
  Hill slope / Hill coefficient of Cx50 inhibition: 1.7
[3]
  reversibility of reduction of junctional currents on washout: reversible
  reduction of junctional currents in lens epithelial cells, % of the initial conductance: 64 ± 8%
Kv7.2/7.3
  Percentage of current inhibition, Kv7.2/7.3: No effect (n = 2)
Kv1.3
  inhibition at 10 µM: 18 ± 4%

## FC(F)(F)Oc1ccc(NC(c2ccccc2)(c2ccccc2)c2ccccc2Cl)cc1 [T150, N-[(2-Chlorophenyl)diphenylmethyl]-4-(trifluoromethoxy)aniline]
Cx50 GJ channels
  effect on Cx50 junctional current: no effect

## Nc1ccccc1C(O)(c1ccccc1)c1ccccc1 [T154-OH, (2-Aminophenyl)diphenylmethanol]
Cx50 GJ channels
  IC50 Cx50 (μM): No effect

## c1ccc(C(c2ccccc2)c2ccncc2)cc1 [T160, diphenyl-4-pyridylmethane]
hKCa3.1
  IC50: 8.6 µM
Cx50 GJ channels
  IC50: 4 µM

## COc1ccccc1C(O)(c1ccccc1)c1ccccc1OC [T165, Bis-(2-methoxyphenyl)(phenyl)methanol]
Cx50 GJ channels
  IC50 Cx50 (μM): No effect

## c1ccc(C(c2ccccc2)c2ccccc2)cc1 [Triphenylmethane, triphenylmethane]
hKCa3.1; IC50 KCa3.1 (μM), Table A1
  IC50: 3.7 µM
Cx50 GJ channels
  IC50: 0.9 µM

## OC(c1ccccc1)(c1ccccc1)c1ccccc1 [Triphenylmethanol, triphenylmethanol]
hKCa3.1; IC50 KCa3.1 (μM), Table A1
  IC50: 0.5 µM
Cx50 GJ channels
  IC50: 1 µM

## CC1(C)[C@@H](OC(=O)CCC(=O)O)CC[C@]2(C)[C@H]3C(=O)C=C4[C@@H]5C[C@@](C)(C(=O)O)CC[C@]5(C)CC[C@@]4(C)[C@]3(C)CC[C@@H]12 [carbenoxolone]
P2x7 receptors
  IC50: 0.175 µM
[4]
  IC50: ~5 µM
[5]
  IC50: 48 µM
Pannexin channels
  IC50: 2 to 5 µM
Cx38 hemichannel
  IC50: 34 µM
Cx26 hemichannel
  IC50: 21 µM

## O=c1c(O)c(-c2ccc(O)c(O)c2)oc2cc(O)cc(O)c12 [quercetin, reference compound]
Cx50 GJ channels
  effect on Cx50 junctional current: no effect

## C[C@@H]1O[C@@H](OC[C@H]2O[C@@H](Oc3c(-c4ccc(O)c(O)c4)oc4cc(O)cc(O)c4c3=O)[C@H](O)[C@@H](O)[C@@H]2O)[C@H](O)[C@H](O)[C@H]1O [rutin, reference compound]
Cx50 GJ channels
  reversibility of inhibition of Cx50 junctional currents upon washout: only partially reversible
  effect on Cx50 junctional current: significant inhibition
